Reference: ChEMBL document CHEMBL3297721, “Protein-ligand interactions: probing the energetics of a putative cation-π interaction” (Bioorg Med Chem Lett, 2014)
Square brackets hold non-standard residues; d marks the D form. Peptide text beside a SMILES is read from it. * marks the point of attachment. pY = N[C@@H](Cc1ccc(OP(=O)(O)O)cc1)C(=O)O; Hydrocinnamoyl = O=C(CCc1ccccc1)*; Ac6c = NC1(C(=O)O)CCCCC1; Cbz = O=C(OCc1ccccc1)*

Biological target: T1, Growth factor receptor-bound protein 2 (Homo sapiens, UniProt P62993)
Experiment: Binding affinity to Grb2 SH2 domain (unknown origin) by isothermal titration calorimetry

Structure (SMILES)	Ka [×10⁶ /M]
NC(=O)C[C@H](NC(=O)C1(NC(=O)[C@H](Cc2ccc(OP(=O)(O)O)cc2)NC(=O)OCc2cccc(N)c2)CCCCC1)C(N)=O	8.8
CC(=O)N[C@@H](Cc1ccc(OP(=O)(O)O)cc1)C(=O)NC1(C(=O)N[C@@H](CC(N)=O)C(N)=O)CCCCC1 (HELM PEPTIDE1{[ac].[O=C([C@H](Cc1ccc(OP(=O)(O)O)cc1)N[*:1])[*:2]].[O=C(C1(N[*:1])CCCCC1)[*:2]].N.[am]}$$$$V2.0)	7

Further lines, results first:

Ka [×10⁶ /M]	Structure (SMILES)
28.8	NC(=O)C[C@H](NC(=O)C1(NC(=O)[C@H](Cc2ccc(OP(=O)(O)O)cc2)NC(=O)CCC2CCCCC2)CCCCC1)C(N)=O
11.4	Cn1cc(CCC(=O)N[C@@H](Cc2ccc(OP(=O)(O)O)cc2)C(=O)NC2(C(=O)N[C@@H](CC(N)=O)C(N)=O)CCCCC2)c2ccccc21
6.5	NC(=O)C[C@H](NC(=O)C1(NC(=O)[C@H](Cc2ccc(OP(=O)(O)O)cc2)NC(=O)OCc2ccccc2)CCCCC1)C(N)=O (Cbz-[pY]-[Ac6c]-Asn-NH2)
23.4	NC(=O)C[C@H](NC(=O)C1(NC(=O)[C@H](Cc2ccc(OP(=O)(O)O)cc2)NC(=O)CCc2ccccc2)CCCCC1)C(N)=O (Hydrocinnamoyl-[pY]-[Ac6c]-Asn-NH2)

Biological target: T1, Growth factor receptor-bound protein 2
Experiment: Binding affinity to Grb2 SH2 domain (60 to 151) (unknown origin) expressed in Escherichia coli BL21(DE3) after overnight incubation by ELISA

Structure (SMILES)	IC50 [nM]
C[C@](NC(=O)[C@H](Cc1ccc(OP(=O)(O)O)cc1)NC(=O)OCc1cccc(N)c1)(C(=O)N[C@@H](CC(N)=O)C(N)=O)c1ccc(OP(=O)(O)O)cc1	13
